From US20150289518A1, “COMPOSITION COMPRISING A BIOLOGICAL CONTROL AGENT AND AN INSECTICIDE” (BAYER CROPSCIENCE AG, priority 2012, published 2015)

Tests used:
Format in all cases: in vivo
[1] = test system: mustard beetle larvae (Phaedon cochleariae); test: Phaedon cochleariae spray test; conditions: mortality, Chinese cabbage leaf disks sprayed
Protocol: (§1) Formula for the efficacy of the combination of two compounds • The expected efficacy of a given combination of two compounds is calculated as follows (see Colby, S. R., “Calculating Synergistic and antagonistic Responses of Herbicide Combinations”, Weeds 15, pp. 20-22, 1967):
(§2) • X is the efficacy expressed in % mortality of the untreated control for test compound A at a concentration of m ppm respectively m g/ha, • Y is the efficacy expressed in % mortality of the untreated control for test compound B at a concentration of n ppm respectively n g/ha, • E is the efficacy expressed in % mortality of the untreated control using the mixture of A and B at m and n ppm respectively m and n g/ha,
(§3) If the observed insecticidal efficacy of the combination is higher than the one calculated as “E”, then the combination of the two compounds is more than additive, i.e., there is a synergistic effect.
• Solvent: 78.0 parts by weight of acetone • 1.5 parts by weight of dimethylformamide • Emulsifier: alkylaryl polyglycol ether […]
(§4) After the specified period of time, mortality in % is determined. […] The mortality values determined thus are recalculated using the Colby-formula (see sheet 1).

[2] = test system: green peach aphid (Myzus persicae); test: Myzus persicae spray test; conditions: mortality
Protocol: as §1, §2, §3
• Solvent: 78.0 parts by weight acetone • 1.5 parts by weight dimethylformamide • Emulsifier: alkylaryl polyglycol ether […]
as §4

[3] = test system: southern root-knot nematode (Meloidogyne incognita); test: Meloidogyne incognita test (MELGIN); conditions: nematicidal activity by gall formation on salad roots, 0.08 ppm
Protocol: as §1, §2, §3
• Solvent: 125.0 parts by weight of acetone
To produce a suitable preparation of active compound, 1 part by weight of active compound is mixed with the stated amount of solvent, and the concentrate is diluted with water to the desired concentration. […]
After the specified period the nematicidal activity is determined on the basis of the percentage of gall formation. […] The values determined thus are recalculated using the Colby-formula (see sheet 1).

Molecule	Efficacy in % after 6d ([1]; 0.8 g ai/ha)	Efficacy in % after 6d ([2]; 0.8 g ai/ha, test 2, 6 d)	Efficacy in % after 1d ([2]; 4 g ai/ha, test 1, 1 d)	Efficacy in % after 6d ([1]; 0.2 g ai/ha)	Efficacy in % after 14d [3]
N#Cc1nn(-c2c(Cl)cc(C(F)(F)F)cc2Cl)c(N)c1[S+]([O-])C(F)(F)F (centres unmarked) [Fipronil]	0%	0%	0%	–	–
Abamectin	–	–	–	0%	0%
